# Assay results as given in patent publication US20190117716A1, “FATTY ACID COMPOSITION AND PHARMACEUTICAL PREPARATION AND APPLICATION THEREOF” (priority 2011, published 2019).
# Experiment: single fatty acids used alone (inventor's research)
# Conditions: any one fatty acid used alone, compared with the combination
row,Compound,curative effect when used alone
1,CCCCCCCCCCCCCCCCCCCC(=O)O [arachidic acid],relatively unobvious
2,CCCCC/C=C\C/C=C\CCCCCCCC(=O)O [linoleic acid],relatively unobvious
3,CCCCCCCC/C=C\CCCCCCCC(=O)O [oleic acid],relatively unobvious
4,CCCCCCCCCCCCCCCC(=O)O [palmitic acid],relatively unobvious
5,CCCCCC/C=C\CCCCCCCC(=O)O [palmitoleic acid],relatively unobvious
6,CCCCCCCCCCCCCCCCCC(=O)O [stearic acid],relatively unobvious
